From BindingDB's records for doi:10.1021/jm0201924 (Senju Pharmaceutical, 2003)

The compounds below were run against Calpain-1 (Sus scrofa) (assay: In vitro inhibition of porcine mu-calpain.).

IC50	SMILES
14 nM	CC(C)[C@H](NS(=O)(=O)c1ccc(Cl)cc1)C(=O)N[C@@H](C=O)Cc1ccccc1 [2-(4-Chloro-benzenesulfonylamino)-N-(1-formyl-2-phenyl-ethyl)-3-methyl-butyramide]
31 nM	CC(C)C[C@H](C=O)NC(=O)[C@@H](NS(=O)(=O)c1ccc(Cl)cc1)C(C)C [2-(4-Chloro-benzenesulfonylamino)-N-(1-formyl-3-methyl-butyl)-3-methyl-butyramide]
13 nM	CC(C)[C@H](NS(=O)(=O)c1ccc(Cl)cc1)C(=O)N[C@@H](C=O)Cc1c[nH]c2ccccc12 [2-(4-Chloro-benzenesulfonylamino)-N-[1-formyl-2-(1H-indol-3-yl)-ethyl]-3-methyl-butyramide]
630 nM	CC(C)[C@H](NS(=O)(=O)c1ccc(F)cc1)C(=O)N[C@H](C)C=O [2-(4-Fluoro-benzenesulfonylamino)-3-methyl-N-(1-methyl-2-oxo-ethyl)-butyramide]
23 nM	CC(C)[C@H](NS(=O)(=O)c1ccc(F)cc1)C(=O)N[C@@H](C=O)Cc1c[nH]c2ccccc12 [2-(4-Fluoro-benzenesulfonylamino)-N-[1-formyl-2-(1H-indol-3-yl)-ethyl]-3-methyl-butyramide]
21000 nM	CC(C)C[C@H](C=O)NC(=O)[C@H](C(C)C)N(C)S(=O)(=O)c1ccc(F)cc1 [2-[(4-Fluoro-benzenesulfonyl)-methyl-amino]-N-(1-formyl-3-methyl-butyl)-3-methyl-butyramide]
14 nM	CC(C)[C@H](NS(=O)(=O)c1ccc2ccccc2c1)C(=O)N[C@@H](C=O)Cc1ccccc1 [N-(1-Formyl-2-phenyl-ethyl)-3-methyl-2-(naphthalene-2-sulfonylamino)-butyramide]
830 nM	CC(C)C[C@H](C=O)NC(=O)[C@@H](NS(C)(=O)=O)C(C)C [N-(1-Formyl-3-methyl-butyl)-2-methanesulfonylamino-3-methyl-butyramide]
10 nM	CC(C)C[C@H](C=O)NC(=O)[C@@H](NS(=O)(=O)c1ccc2ccccc2c1)C(C)C [N-(1-Formyl-3-methyl-butyl)-3-methyl-2-(naphthalene-2-sulfonylamino)-butyramide]

SMILES	IC50
CC(C)[C@H](NS(=O)(=O)c1ccc(F)cc1)C(=O)N[C@@H](C=O)Cc1ccccc1 [2-(4-Fluoro-benzenesulfonylamino)-N-(1-formyl-2-phenyl-ethyl)-3-methyl-butyramide]	27 nM
Cc1ccc(S(=O)(=O)N[C@H](C(=O)N[C@@H](C=O)Cc2ccccc2)C(C)C)cc1 [N-(1-Formyl-2-phenyl-ethyl)-3-methyl-2-(toluene-4-sulfonylamino)-butyramide]	18 nM
Cc1ccc(S(=O)(=O)N[C@H](C(=O)N[C@@H](C=O)CC(C)C)C(C)C)cc1 [N-(1-Formyl-3-methyl-butyl)-3-methyl-2-(toluene-4-sulfonylamino)-butyramide]	28 nM
